From PubChem BioAssay (NCI)
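Interpolation was linear, between the two tested concentrations surrounding the appropriate level; five concentrations were tested over 48 hours in 96-well plates. At the GI50, growth is halved. TGI marks complete inhibition of growth.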 *1 amine or outer side, *2 acyl side, *3 side chain or, on linkers, in order; H or OH if unused. Where a SMILES comes first, the peptide text is derived from it. Bridges are numbered along the chain shown (N, C = ends). Roman numbers before positions name the chains, in order. [ ]: non-standard residue; d: D form. Actinocin(9to1) = Cc1c2oc3c(C)ccc(C(=O)[*:1])c3nc-2c(C(=O)[*:2])c(N)c1=O; NMeV = CN[CH](C(=O)O)C(C)C; Sar = CNCC(=O)O

What was measured:
Assay in all cases: NCI tumour cell line growth inhibition, 48 h
HL-60(TB) leukemia = test system: HL-60(TB) leukemia
SN12C renal = test system: SN12C renal
SK-MEL-5 melanoma = test system: SK-MEL-5 melanoma
OVCAR-8 ovarian = test system: OVCAR-8 ovarian
UACC-257 melanoma = test system: UACC-257 melanoma
MDA-MB-435 = test system: MDA-MB-435
OVCAR-5 ovarian = test system: OVCAR-5 ovarian
RPMI-8226 leukemia = test system: RPMI-8226 leukemia
HT29 colon = test system: HT29 colon
NCI-H23 lung = test system: NCI-H23 lung

| Compound | TGI (HL-60(TB) leukemia) [µM] | TGI (SN12C renal) [µM] | TGI (SK-MEL-5 melanoma) [µM] | TGI (OVCAR-8 ovarian) [µM] | TGI (UACC-257 melanoma) [µM] | TGI (MDA-MB-435) [µM] | TGI (OVCAR-5 ovarian) [µM] | TGI (RPMI-8226 leukemia) [µM] | TGI (HT29 colon) [µM] | TGI (NCI-H23 lung) [µM] | GI50 (HL-60(TB) leukemia) [µM] |
| --- | --- | --- | --- | --- | --- | --- | --- | --- | --- | --- | --- |
| CCCCN(CCCC)C1=Nc2ccccc2-n2c(nnc2C(=O)OCC)C1 | 40.9 | > 100 | 38.5 | > 100 | 90 | > 100 | > 100 | > 100 | > 100 | > 100 |  |
| COC(=O)c1c(C)cccc1C1CN=NC12Cc1cccc(C)c1C2=O (centres undefined) | 33.6 | > 100 | 40.1 | > 100 | 57.7 | > 100 | > 100 | > 100 | > 100 | > 100 |  |
| COc1cccc(OC/C(N=Cc2ccncc2)=N/NC(=O)c2ccncc2)c1 | > 100 | > 100 |  | > 100 | > 100 | > 100 | > 100 | > 100 | > 100 | > 100 |  |
| O=c1cnc2cc3ccccc3cc2[nH]1 | > 100 | > 100 | > 100 | > 100 | > 100 | > 100 | > 100 | > 100 | > 100 | > 100 |  |
| CN1C(=O)C(CCO)(C(C)(C)C)c2ccccc21 (centres undefined) | > 100 | > 100 | > 100 | > 100 | > 100 | > 100 | > 100 | > 100 |  | > 100 |  |
| O=C1/C(=C(/Br)I)c2ccccc2-c2ccccc21 | 0.516 | 33.7 | 31.1 | 31.5 | 18.5 | 22 | 25.5 | 8.37 | 18.3 | 46.4 |  |
| Cc1sc2nc3n(sc4nc5sc(C)c(C)c5c(=O)n43)c(=O)c2c1C | > 100 | > 100 | > 100 | > 100 | > 100 | > 100 | > 100 | > 100 | > 100 | > 100 |  |
| C=C1CC(Cn2cc(Br)c(=O)[nH]c2=O)(c2ccc(Br)cc2)OC1=O (centres undefined) | 2.74 | 20.8 | 7.5 | > 100 | 4.11 | 10.4 | 22.5 | 1.61 | 7.89 | 10.6 |  |
| CCOC(=O)COC1=Nc2cc(OC)c(OC)c3nc(Cl)cc(c23)C1=O | 0.879 | 3.3 | 3.53 | 9.8 | 3.21 | 2.93 | 4.11 | > 100 | 6.37 | 5.3 |  |
| CCC(C)C(NC(=O)C1CCCN1)C(=O)NC(C(=O)NCC(=O)NC(CC(N)=O)C(=O)NC(CC(C)C)C(=O)NC(CC(C)C)C(=O)NC(CCCCN)C(N)=O)C(C)C (centres undefined) (H-PIVGNLLK-NH2; configuration not given here) | > 75 | > 75 | > 75 | > 75 | > 75 | > 75 | > 75 | > 75 | > 75 | > 75 |  |
| CCC(=O)Nc1ccc(N2C(=O)/C(=C/c3ccc(O)c(OC)c3)N=C2c2ccccc2)cc1 | > 100 | > 100 | 32.8 | > 100 | 71.5 | > 100 | > 100 | > 100 | > 100 | > 100 |  |
| C=C(C)[C@@H]1CC[C@]2(C(=O)OC3OC(COC4OC(CO)C(OC5OC(C)C(O)C(O)C5O)C(O)C4O)C(O)C(O)C3O)CC[C@]3(C)[C@H](CC[C@@H]4[C@@]5(C)CC[C@H](O)[C@@](C)(CO)[C@@H]5CC[C@]43C)[C@@H]12 (some centres undefined) | 1.13 | 9.79 | > 8.46 | > 10 | > 10 | > 10 | > 10 | > 5.92 | > 10 | > 5.57 |  |
| O=C1Sc2cc3ccccc3cc2C(=O)Sc2cc3ccccc3cc21 | 27.1 | 75.7 | > 100 | > 89.2 | > 78.7 | > 100 | > 100 | > 24.6 | > 90.5 | > 100 |  |
| O=C1/C(=C/c2cccs2)N=C(c2ccccc2)N1c1nc2ccccc2s1 | > 100 | > 100 | > 100 | > 100 | > 100 | > 100 | > 100 | 52.2 | > 100 | > 100 |  |
| O=c1[nH]nc(N/N=C\c2ccc(Cl)cc2)c2ccccc12 | > 100 | 73 | 39.3 | 54.8 | 49.3 | 32.4 | 31.8 | > 100 | > 100 | 40.1 |  |
| Cc1c2oc3c(C)ccc(C(=O)NC4C(=O)NC(Cc5ccc(O)cc5)C(=O)N5CCCC5C(=O)N(C)CC(=O)N(C)C(C(C)C)C(=O)OC4C)c3nc-2c(C(=O)NC2C(=O)NC(Cc3ccc(O)cc3)C(=O)N3CCCC3C(=O)N(C)CC(=O)N(C)C(C(C)C)C(=O)OC2C)c(N)c1=O (centres undefined) (I: TYP[Sar][NMeV] / II: TYP[Sar][NMeV]; ester I:1-I:C, II:1-II:C; linker I:N-II:N via Actinocin(9to1); configuration not given here) | > 76.2 | > 100 | > 86.1 | > 100 | > 100 | > 100 | > 43.8 | > 100 | > 100 | > 79.2 |  |
| CCCOC1OC(CS(=O)(=O)O)C(OC(C)=O)C(OC(C)=O)C1OC(C)=O (centres undefined) | > 100 | > 100 | > 100 | > 100 | > 100 | > 100 | > 100 | > 100 | > 100 | > 100 |  |
| CN1CCCC(OC(=O)c2cc3cc(CCl)ccc3oc2=O)C1 (centres undefined) | 13.2 | 43.6 | 33.9 | > 100 | 40.2 | 41.6 | 43.4 | 89.1 | 46.9 | 45.1 |  |
| C#Cc1cccc(Nc2ncnc3cc(OCCOC)c(OCCOC)cc23)c1 | > 100 | > 51.6 | > 78.9 | > 93.3 | > 100 | > 100 | > 100 | > 74.7 | > 100 | > 100 | 20.6 |
| CC(=O)NCC1OC2COC(c3ccccc3)OC2C2N=C(c3ccccc3)OC12 (centres undefined) | 52.9 | > 100 | > 100 | > 100 | > 100 | > 100 | > 100 | 89.1 | > 100 | > 100 |  |
